# Measurements from patent US20100008965A1, “BIOCOMPATIBLE MEDICAL PRODUCTS HAVING ENHANCED ANTI-THROMBOGENIC PROPERTIES” (priority 2008, published 2010).
# How the values were obtained:
# HCAEC [1] = experiment: HCAEC cell binding assay to immobilized fibronectin polypeptides (crystal violet); format: cell-based, human; conditions: immobilized, 8 h
# Experimental: (§1) Human coronary artery endothelial cell (HCAEC) and human umbilical vein endothelial cell (HUVEC) primary human cells were obtained (Cambrex Corporation, East Rutherford, N.J.) and maintained according to the manufacturer's instructions at 37° C. and 5% CO2. HCAEC were grown in microvascular endothelial cell medium (EBM-2 MV, Cambrex) supplemented with 5% fetal bovine serum, 0.1% human epidermal growth factor, 0.04% hydrocortisone, 0.1% vascular endothelial growth factor, 0.4% human fibroblast growth factor-B, 0.1% R^3-insulin-like growth factor-1, 0.1% ascorbic acid, and 0.1% gentamicin and amphotericin-B (GA-1000). HUVEC were grown in endothelial cell medium (EBM, Cambrex) supplemented with 2% fetal bovine serum, 0.4% bovine brain extract, 0.1% human epidermal growth factor, 0.1% hydrocortisone, and 0.1% gentamicin and amphotericin-B (GA-1000). HCAEC and HUVEC were subcultured at 90-95% confluence using 0.05% trypsin-EDTA (Invitrogen, Carlsbad, Calif.) and used for experiments between passages 3-7 (HUVEC) or 5-11 (HCAEC).
# HCAEC or HUVEC cell binding assays to immobilized recombinant fibronectin polypeptides were performed in order to ascertain which polypeptide(s) maximally support(s) alpha-4 integrin-mediated cell adhesion. Connecting Segment-1 (SEQ ID NO:1), EILDV (SEQ ID NO:2), RGDS (SEQ ID NO:3) (positive control), RGES (SEQ ID NO:4) (negative control), and EILEVPST (SEQ ID NO:5) (negative control) and were immobilized by drying overnight at room temperature in Immobilizer™ Amino 96-well microplates (Nalge Nunc International, Rochester, N.Y.). RGES, EILDV, and EILEVPST were incubated at a molar equivalent concentration equal to 200 μg RGDS per well. CS-1 was incubated at 50 μg/well. On a molar basis per well, this equates to approximately twenty-fold less CS-1 relative to RGDS. […] Cells were manually counted, and their concentration adjusted to yield a total cell population of 5×10^4 cells/well. […] Spectrometric absorbance values were read at 562 nm at room temperature using a ThermoMax microplate reader (Molecular Devices Corporation, Sunnyvale, Calif.).
# HCAEC [2] = experiment: alpha-4 integrin function blocking cell binding assay, HCAEC; format: cell-based, human; conditions: 0.5 μg antibody per 5×10^4 cells, 8 h; CS-1 p<0.05
# Experimental: (§2) To verify that HCAEC or HUVEC adhesion to immobilized CS-1 polypeptides is specifically mediated via alpha-4-containing integrin heterodimers, alpha-4 integrin function blocking cell binding assays were performed. RGDS, EILEVPST, and CS-1 polypeptides were immobilized in Immobilizer™ Amino 96-well microplates. Microplate wells were prepared as described above. Trypsinized HCAEC or HUVEC suspensions were manually counted, aliquoted into two groups, and incubated for one hour on ice with one of the following antibodies at a concentration of 0.5 μg antibody per 5×10^4 cells: (a) mouse monoclonal IgG1 anti-human alpha-4-integrin (CD49d, clone P1H4) (Chemicon), or (b) mouse monoclonal IgG1 anti-human isotype-matched control (R&D Systems). Next, 5×10^4 cells suspended in their respective basal medium were added to wells containing immobilized peptide polypeptides and incubated for eight hours at 37° C. and a 5% CO2 atmosphere. Adherent cells were analyzed via crystal violet staining as described previously.
# To differentiate whether HCAEC and HUVEC adhere to CS-1 peptides via an alpha-4 integrin-specific interaction, HCAEC and HUVEC adhesion assays to CS-1, RGDS, and EILEVPST peptides were performed following one hour endothelial cell incubations with either an alpha-4 integrin function blocking antibody or an IgG isotype-matched control antibody. The EILEVPST peptide served as the negative control cell adhesion peptide. The RGDS peptide served as an additional control. Endothelial cell adhesion to RGDS is primarily mediated by alpha-5-beta-1 integrins. Therefore, alpha-4 integrin function blocking should not have a significant effect on adhesion to RGDS. Thus, specificity of HCAEC and HUVEC binding to CS-1 via alpha-4 integrins could be tested.
# HUVEC [3] = experiment: HUVEC cell binding assay to immobilized fibronectin polypeptides (crystal violet); format: cell-based, human; conditions: 8 h
# Experimental: as §1, with “HCAEC and HUVEC were subcultured at 90-95% confluence using 0.05% trypsin-EDTA (Invitrogen, Carlsbad, Calif.) and used for experiments between passages 3-7 (HUVEC) or 5-11 (HCAEC).” left out
# HCAEC or HUVEC cell binding assays to immobilized recombinant fibronectin polypeptides were performed in order to ascertain which polypeptide(s) maximally support(s) alpha-4 integrin-mediated cell adhesion. […] Cells were manually counted, and their concentration adjusted to yield a total cell population of 5×10^4 cells/well. […] Spectrometric absorbance values were read at 562 nm at room temperature using a ThermoMax microplate reader (Molecular Devices Corporation, Sunnyvale, Calif.).
# HUVEC [4] = experiment: alpha-4 integrin function blocking cell binding assay, HUVEC; format: cell-based, human; conditions: 0.5 μg antibody per 5×10^4 cells, 8 h; CS-1 p=0.1
# Experimental: as §2
# To differentiate whether HCAEC and HUVEC adhere to CS-1 peptides via an alpha-4 integrin-specific interaction, HCAEC and HUVEC adhesion assays to CS-1, RGDS, and EILEVPST peptides were performed following one hour endothelial cell incubations with either an alpha-4 integrin function blocking antibody or an IgG isotype-matched control antibody. […]
# [5] = target: human alpha-4 integrin (CD49d), alpha-4-containing integrin heterodimers on endothelial cells (human) (UniProt P13612); experiment: flow cytometry, FITC-BU49 on fixed HCAEC, against isotype control
# Chain of human alpha-4 integrin (CD49d), alpha-4-containing integrin heterodimers on endothelial cells (human) (P13612 34-1032, one chain of several): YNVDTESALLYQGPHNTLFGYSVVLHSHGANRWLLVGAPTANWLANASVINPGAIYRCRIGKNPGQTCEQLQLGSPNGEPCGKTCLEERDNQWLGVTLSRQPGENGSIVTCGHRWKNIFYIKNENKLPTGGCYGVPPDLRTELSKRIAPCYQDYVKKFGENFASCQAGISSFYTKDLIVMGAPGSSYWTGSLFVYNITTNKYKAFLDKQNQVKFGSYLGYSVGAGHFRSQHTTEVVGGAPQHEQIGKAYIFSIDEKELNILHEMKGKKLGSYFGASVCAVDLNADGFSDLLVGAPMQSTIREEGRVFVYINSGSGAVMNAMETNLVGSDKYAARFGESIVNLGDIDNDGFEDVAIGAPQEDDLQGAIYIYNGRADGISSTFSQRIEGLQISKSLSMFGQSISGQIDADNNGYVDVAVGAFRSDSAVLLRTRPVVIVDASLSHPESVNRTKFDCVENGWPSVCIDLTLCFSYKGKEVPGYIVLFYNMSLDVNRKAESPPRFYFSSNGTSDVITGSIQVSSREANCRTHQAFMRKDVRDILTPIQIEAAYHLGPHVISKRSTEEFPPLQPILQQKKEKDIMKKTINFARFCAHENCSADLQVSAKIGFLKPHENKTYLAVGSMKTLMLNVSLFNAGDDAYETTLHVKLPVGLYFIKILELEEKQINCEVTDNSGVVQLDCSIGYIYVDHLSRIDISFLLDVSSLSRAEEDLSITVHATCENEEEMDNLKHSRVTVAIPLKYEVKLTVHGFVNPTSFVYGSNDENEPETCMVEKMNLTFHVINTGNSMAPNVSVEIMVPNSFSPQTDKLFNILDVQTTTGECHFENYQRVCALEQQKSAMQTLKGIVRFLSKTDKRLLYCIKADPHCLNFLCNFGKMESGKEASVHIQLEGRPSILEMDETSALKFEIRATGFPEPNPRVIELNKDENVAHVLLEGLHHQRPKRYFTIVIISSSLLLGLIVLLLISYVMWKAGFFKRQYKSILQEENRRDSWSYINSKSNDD
# [6] = target: human alpha-4 integrin (CD49d), alpha-4-containing integrin heterodimers on endothelial cells (human) (UniProt P13612); experiment: flow cytometry, FITC-BU49 on fixed human foreskin fibroblasts, against isotype control
# [7] = target: human alpha-4 integrin (CD49d), alpha-4-containing integrin heterodimers on endothelial cells (human) (UniProt P13612); experiment: flow cytometry, FITC-BU49 on fixed HUVEC, against isotype control
# human platelets [8] = experiment: 51Cr-labeled platelet adhesion to immobilized ECM proteins under shear flow; format: cell-based; conditions: 16.5 dyne/cm^2, one hour; non-activated and thrombin-activated; versus CS-1 and glass control
# Experimental: Characterization of human platelet adhesion to immobilized extracellular matrix proteins was performed by subjecting non-activated or thrombin-activated human platelets to a shear stress τ=16.5 dyne/cm^2 for one hour using a peristaltic pump-driven parallel plate fluid flow system. Washed human platelets were isolated as described above, resuspended in platelet washing buffer (PWB), and adjusted to a final concentration of approximately 0.5-1.0×10^9 platelets/ml. The platelet suspensions were incubated for thirty minutes at room temperature with 25 μCi/ml Na2^51CrO4 (GE Healthcare, Piscataway, N.J.). ^51Cr-labeled platelets were centrifuged at 2000×g for three minutes at room temperature and resuspended in 20 ml fresh frozen plasma previously thawed and warmed to 37° C. The ^51Cr-platelet/plasma solution was distributed equally (5 ml) into each of four reservoirs containing an additional 50 ml of 37° C. human plasma. For thrombin-activated platelets, 1 U thrombin (Sigma) per 3 ml platelet suspension was added immediately prior to aliquoting the ^51Cr-platelet/plasma solution into the flow loop reservoirs.
# 75×38×1 mm glass microscope slides were coated with ECM proteins as described above. Slides were incubated for one hour at room temperature with a 0.25% (w/v) sterile-filtered BSA solution. […]
# human platelets [9] = experiment: DiOC6-labeled platelet adhesion imaging under shear flow; format: cell-based; conditions: 16.5 dyne/cm^2, one hour
# Experimental: To visualize shear stress-mediated platelet adhesion to the immobilized ECM proteins, non-radiolabeled non-activated or thrombin-activated human platelets were prepared as described above, but were first incubated for ten minutes at room temperature with a 10 μM DiOC6 (dihexaoxacarbocyanine iodide) (Sigma) solution prior to being subjected to flow for one hour at a shear stress τ=16.5 dyne/cm^2. Post-flow, all slides were rinsed twice with PBS and fixed with 4% (w/v) paraformaldehyde. Platelet adhesion was visualized on a Nikon Diaphot 200 inverted epifluorescence microscope (Nikon) at 488 nm using a 40× objective. Images were captured using an Olympus DP70 digital camera (Olympus America, Inc.) and analyzed using the Adobe® Photoshop® software package version 6.0 (Adobe Systems Incorporated, San Jose, Calif.).
# [10] = target: human alpha-4 integrin (CD49d), alpha-4-containing integrin heterodimers on endothelial cells (human, UniProt P13612 34-1032); experiment: cell-based or functional assay
# Chain of human alpha-4 integrin (CD49d), alpha-4-containing integrin heterodimers on endothelial cells (P13612 34-1032, one chain of several): as above
molecule,measurement,setting,value
EILDV (listed as Homo sapiens) [fibronectin IIICS peptide],HCAEC adhesion compared with RGES control,HCAEC [1],not statistically different than the RGES control
EILEVPST (listed as Homo sapiens) [alpha-4 integrin-mediated negative control peptide],difference in HCAEC adhesion between IgG isotype control and alpha-4 integrin blocking antibody treated cells,HCAEC [2],not statistically significant
same,HCAEC adhesion compared with RGES control,HCAEC [1],essentially equivalent
same,HUVEC adhesion compared with RGES control,HUVEC [3],essentially equivalent
same,difference in HUVEC adhesion between IgG isotype control and alpha-4 integrin blocking antibody treated cells,HUVEC [4],not statistically significant
"FITC-conjugated mouse monoclonal IgG1 anti-human alpha-4 integrin (CD49d, clone BU49) (Chemicon International) (antibody)",percent of cell population positive,[5],40%
same,percent of cell population positive,[6],75%
same,percent of cell population positive,[7],10%
"RGDS (listed as Homo sapiens) [integrin-mediated cell adhesion peptide, positive control]",difference in HCAEC adhesion between IgG isotype control and alpha-4 integrin blocking antibody treated cells,HCAEC [2],not statistically significant
same,difference in HUVEC adhesion between IgG isotype control and alpha-4 integrin blocking antibody treated cells,HUVEC [4],not statistically significant
"type I human collagen: human type I collagen (Sigma), extracellular matrix protein","flowed platelet binding (51Cr), both states of activation",human platelets [8],significantly increased binding
same,non-activated platelet adhesion and thrombus formation (DiOC6 images),human platelets [9]; non-activated platelets,"quite vigorous, with clear evidence of multiple organized thrombi"
same,thrombin-activated platelet adhesion and thrombus formation (DiOC6 images),human platelets [9]; platelets activated prior to flow,mimicked the non-activated counterparts
DELPQLVTLPHPNLHGPEILDVPST,"HCAEC adhesion to immobilized peptide, fold relative to control peptide RGES (crystal violet, A562)",[10],1.6 fold
same,"HUVEC adhesion to immobilized peptide, fold relative to control peptide RGES (crystal violet, A562)",[10],~4 fold
same,"percent more of the total HCAEC population adhered, relative to RGES",[10],~20%
same,"percent more of the total HUVEC population adhered, relative to RGES",[10],~25%
